Laboratory results taken from the supplement of paper PMC11451515.

Legend:
Assay in all cases: AUC of viability dose-response curve (% viability x log10 dose units); higher = less sensitive
Details in all cases: 48 h
P12-Ichikawa = system: P12-Ichikawa
Method in brief: (§1)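 Library compounds in DMSO were applied for 48 h at 37°C at 11 threefold doses (47 μM to 0.79 nM) to medium-adapted leukemia cells in 1536-well plates holding 500 or 1000 cells/well. Luminescence from CellTiter-Glo One was normalised plate by plate against DMSO and cell-free wells. Area under the curve came from trapezoidal integration of a log-logistic fit, after scaling curves that rose above full viability and discarding those that failed quality control. The fit had four parameters and used log10 doses.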

SEM cells = system: SEM cells
Method in brief: as §1

NOMO1 = system: NOMO1
Method in brief: as §1

[1] = RPMI 5 mM glucose + 10% dialyzed FBS

Nc1cc(N2CCCCC2)nc(N)[n+]1[O-]
AUC of viability dose-response curve (P12-Ichikawa; HPLM + 10% dialyzed FBS): 469 | AUC of viability dose-response curve (P12-Ichikawa; RPMI 5 mM glucose + 10% FBS): 468 | AUC of viability dose-response curve (P12-Ichikawa; [1]): 475 | AUC of viability dose-response curve (SEM cells; HPLM + 10% dialyzed FBS): 451 | AUC of viability dose-response curve (SEM cells; RPMI 5 mM glucose + 10% FBS): 451 | AUC of viability dose-response curve (SEM cells; [1]): 455 | AUC of viability dose-response curve (NOMO1; HPLM + 10% dialyzed FBS): 451 | AUC of viability dose-response curve (NOMO1; RPMI 5 mM glucose + 10% FBS): 461 | AUC of viability dose-response curve (NOMO1; [1]): 465
